According to ChEMBL document CHEMBL1201862, “PubChem BioAssay data set” (2004):
Active and inactive are the calls of the source. Cut-off read from the data, not from the text of the source, for most assays here: actives have a measured EC50 and inactives only a lower limit.

Experiments:
[1] = molecular target: Aurora kinase B (Homo sapiens, UniProt Q96GD4); format: functional
[2] = molecular target: Vascular endothelial growth factor receptor 2 (Homo sapiens, UniProt P35968); format: functional
Vascular endothelial growth factor receptor 2, sequence (P35968 whole entry): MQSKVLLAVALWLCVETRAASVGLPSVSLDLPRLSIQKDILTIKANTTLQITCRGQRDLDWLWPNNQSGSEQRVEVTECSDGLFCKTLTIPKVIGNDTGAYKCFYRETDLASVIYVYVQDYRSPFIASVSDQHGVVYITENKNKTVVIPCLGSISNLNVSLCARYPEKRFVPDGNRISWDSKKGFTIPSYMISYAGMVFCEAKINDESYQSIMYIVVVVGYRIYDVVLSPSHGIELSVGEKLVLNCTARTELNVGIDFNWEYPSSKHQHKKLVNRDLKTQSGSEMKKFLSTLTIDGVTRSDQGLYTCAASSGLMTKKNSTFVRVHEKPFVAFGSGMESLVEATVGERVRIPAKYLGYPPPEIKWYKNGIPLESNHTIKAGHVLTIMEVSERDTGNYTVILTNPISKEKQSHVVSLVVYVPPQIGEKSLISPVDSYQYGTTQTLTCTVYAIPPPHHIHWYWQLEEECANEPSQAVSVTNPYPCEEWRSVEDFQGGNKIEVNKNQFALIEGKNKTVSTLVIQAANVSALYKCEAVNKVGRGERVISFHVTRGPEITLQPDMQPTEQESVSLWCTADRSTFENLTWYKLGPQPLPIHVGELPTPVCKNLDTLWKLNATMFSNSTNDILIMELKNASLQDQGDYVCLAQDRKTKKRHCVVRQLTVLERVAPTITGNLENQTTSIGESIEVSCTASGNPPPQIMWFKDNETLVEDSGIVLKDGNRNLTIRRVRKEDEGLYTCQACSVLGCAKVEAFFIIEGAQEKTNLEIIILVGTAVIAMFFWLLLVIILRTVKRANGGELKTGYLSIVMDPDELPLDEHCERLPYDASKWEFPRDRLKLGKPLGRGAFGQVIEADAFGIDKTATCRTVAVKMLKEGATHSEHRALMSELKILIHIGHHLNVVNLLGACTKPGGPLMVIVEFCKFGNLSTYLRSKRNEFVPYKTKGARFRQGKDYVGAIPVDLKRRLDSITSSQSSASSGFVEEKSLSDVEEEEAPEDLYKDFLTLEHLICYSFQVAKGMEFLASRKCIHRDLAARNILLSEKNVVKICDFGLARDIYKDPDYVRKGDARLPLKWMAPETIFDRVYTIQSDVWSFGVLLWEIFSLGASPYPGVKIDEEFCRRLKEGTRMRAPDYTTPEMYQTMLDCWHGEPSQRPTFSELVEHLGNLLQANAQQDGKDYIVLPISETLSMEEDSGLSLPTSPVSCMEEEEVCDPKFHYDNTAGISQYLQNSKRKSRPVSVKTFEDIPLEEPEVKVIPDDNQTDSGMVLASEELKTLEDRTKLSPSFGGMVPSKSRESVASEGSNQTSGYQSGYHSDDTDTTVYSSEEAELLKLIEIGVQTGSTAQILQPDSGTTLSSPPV

[3] = molecular target: Aurora kinase A (Homo sapiens, UniProt O14965); format: functional;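 note: value from the Navigating the Kinome kinase panel profiling, panel entry STK6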
Aurora kinase A, sequence (O14965 whole entry, the tested form may be a part): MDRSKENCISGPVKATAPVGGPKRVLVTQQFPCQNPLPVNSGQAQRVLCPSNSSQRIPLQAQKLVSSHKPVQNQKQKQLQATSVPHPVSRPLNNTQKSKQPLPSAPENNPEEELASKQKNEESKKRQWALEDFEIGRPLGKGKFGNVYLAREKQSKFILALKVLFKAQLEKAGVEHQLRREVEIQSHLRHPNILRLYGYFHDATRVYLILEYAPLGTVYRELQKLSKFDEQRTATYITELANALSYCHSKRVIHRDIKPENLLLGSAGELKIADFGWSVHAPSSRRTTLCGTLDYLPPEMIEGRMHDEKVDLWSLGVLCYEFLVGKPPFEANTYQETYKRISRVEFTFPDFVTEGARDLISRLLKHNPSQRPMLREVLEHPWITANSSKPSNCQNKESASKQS

[4] = molecular target: Photoreceptor-specific nuclear receptor (Homo sapiens, UniProt Q9Y5X4); format: functional, cell-based;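 note: CHO-S cells with Gal4-NCOR and VP16-NR2E3 two-hybrid luciferase reporter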
Photoreceptor-specific nuclear receptor, sequence (Q9Y5X4 whole entry, the tested form may be a part): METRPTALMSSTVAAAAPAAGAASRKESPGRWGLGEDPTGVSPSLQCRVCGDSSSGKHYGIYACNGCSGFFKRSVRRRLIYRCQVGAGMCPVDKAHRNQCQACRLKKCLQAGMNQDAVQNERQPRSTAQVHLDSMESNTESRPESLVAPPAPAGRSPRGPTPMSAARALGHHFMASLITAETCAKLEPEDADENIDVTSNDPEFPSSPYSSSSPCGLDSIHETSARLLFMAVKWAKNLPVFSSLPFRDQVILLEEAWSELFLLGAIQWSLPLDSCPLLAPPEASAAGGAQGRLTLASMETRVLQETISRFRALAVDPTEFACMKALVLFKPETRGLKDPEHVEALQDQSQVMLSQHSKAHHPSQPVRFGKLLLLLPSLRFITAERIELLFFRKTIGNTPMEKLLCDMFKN

[5] = test system: Vero; assay: cells; format: functional; conditions: Chlorocebus sabaeus
[6] = cytotoxicity toward DRD oncogenic fibroblasts, dose response, cell-based, non-viral oncogenic, luminescence (AID 1934); format: functional; conditions: Homo sapiens
[7] = molecular target: T1, RNA-binding protein pos-1 (Caenorhabditis elegans, UniProt G5EF15); assay: inhibitors of POS-1/mex-3 RNA binding, dose response, biochemical, fluorescence polarization (AID 1964);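 note: purified POS-1 fused to maltose binding protein made in E. coli; potency of compounds blocking POS-1 binding to fluorescent RNA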
T1 sequence (G5EF15 whole entry): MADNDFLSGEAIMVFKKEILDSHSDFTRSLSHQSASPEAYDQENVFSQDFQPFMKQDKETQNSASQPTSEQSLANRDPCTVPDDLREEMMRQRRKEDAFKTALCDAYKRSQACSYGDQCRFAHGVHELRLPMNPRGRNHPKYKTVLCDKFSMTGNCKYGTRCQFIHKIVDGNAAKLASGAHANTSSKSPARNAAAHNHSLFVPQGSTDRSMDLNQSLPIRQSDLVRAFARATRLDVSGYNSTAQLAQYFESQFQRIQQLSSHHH

[8] = test system: BJ; assay: cytotoxicity toward BJ-TERT fibroblasts, dose response, cell-based, RAS-independent, luminescence (AID 1933); format: functional; conditions: Homo sapiens
[9] = test system: BJ; assay: cells; format: functional, cell-based; conditions: Homo sapiens
[10] = test system: BJ; assay: cytotoxicity toward Ras-transformed BJeLR fibroblasts, dose response, cell-based, alamar blue fluorescence, cherrypicked samples (AID 2631); format: functional; conditions: Homo sapiens;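 note: confirmatory dose-response assay in RAS-dependent BJ fibroblasts engineered with TERT, LT and ST, with cytotoxicity read by fluorescence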
[11] = molecular target: T2, Streptokinase A (Streptococcus pyogenes serotype M1, UniProt P10520); assay: S. pyogenes streptokinase expression inhibitors, potency, dose response, plasminogen activation absorbance, OD405 (AID 1914); format: functional, Streptococcus pyogenes M1 GAS;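 note: secreted streptokinase activity via plasminogen activation per viability signal from cell pellet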
T2 sequence (P10520 whole entry): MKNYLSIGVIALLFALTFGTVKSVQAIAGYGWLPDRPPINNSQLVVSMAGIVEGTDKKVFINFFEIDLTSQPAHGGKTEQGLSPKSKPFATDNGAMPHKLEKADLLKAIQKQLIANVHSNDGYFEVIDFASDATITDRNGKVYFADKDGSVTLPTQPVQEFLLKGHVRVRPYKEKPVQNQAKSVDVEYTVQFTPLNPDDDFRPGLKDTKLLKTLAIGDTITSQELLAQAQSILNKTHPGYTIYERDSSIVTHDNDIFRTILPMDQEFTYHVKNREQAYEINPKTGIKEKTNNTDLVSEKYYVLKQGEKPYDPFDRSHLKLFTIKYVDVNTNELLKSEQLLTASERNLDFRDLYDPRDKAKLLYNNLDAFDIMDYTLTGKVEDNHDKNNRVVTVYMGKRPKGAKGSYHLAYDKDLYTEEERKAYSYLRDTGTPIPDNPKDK

[12] = molecular target: T3, Zinc finger protein mex-5 (Caenorhabditis elegans, UniProt Q9XUB2); assay: MEX-5/TCR-2 RNA interaction inhibitors, dose response, biochemical, C. elegans, fluorescence polarization (AID 1960)
T3 sequence (Q9XUB2 whole entry): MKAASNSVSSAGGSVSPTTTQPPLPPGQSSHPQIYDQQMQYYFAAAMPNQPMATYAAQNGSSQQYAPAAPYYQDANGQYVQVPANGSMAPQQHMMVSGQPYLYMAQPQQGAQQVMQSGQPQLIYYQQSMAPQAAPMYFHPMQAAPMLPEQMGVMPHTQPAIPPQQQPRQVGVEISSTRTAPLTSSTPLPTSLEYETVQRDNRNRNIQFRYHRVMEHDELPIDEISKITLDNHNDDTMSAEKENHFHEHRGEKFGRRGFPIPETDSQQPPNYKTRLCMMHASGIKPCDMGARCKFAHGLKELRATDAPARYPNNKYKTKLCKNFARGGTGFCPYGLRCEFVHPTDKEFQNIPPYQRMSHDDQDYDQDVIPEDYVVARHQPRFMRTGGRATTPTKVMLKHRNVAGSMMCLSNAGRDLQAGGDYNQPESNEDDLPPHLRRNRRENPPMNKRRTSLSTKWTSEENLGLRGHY

[13] = test system: BJ; assay: cytotoxicity toward BJ-TERT-LT-ST fibroblasts, dose response, cell-based, RAS-independent, luminescence (AID 1935); format: functional; conditions: Homo sapiens;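 note: BJ fibroblasts immortalized with TERT plus LT and ST oncogenes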
[14] = test system: Streptococcus; assay: Group A Streptococcus viability loss, dose response, counter-screen for streptokinase expression inhibitor project, luminescence, BacTiterGlo (AID 1915); format: functional, organism-based;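 note: potency for reduction of bacterial viability or growth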
[15] = NIH-3T3 fibroblast cytotoxicity, dose response, cytotoxicity control, cell-based, fluorescence, Alamar Blue, secondary assay (AID 2327); format: functional;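 note: NIH-3T3 mouse fibroblasts cultured with fluconazole at 8 µg/mL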
[16] = C. albicans growth with fluconazole, confirmation, fluorescence, retest (AID 2467); format: functional, cell-based
[17] = test system: Streptococcus sp. 'group A'; assay: growth inhibition of control SK(-) GAS strain, dose response, counter-screen for streptokinase expression inhibitor project, luminescence, kanamycin, BacTiterGlo, confirmation (AID 1900); format: functional, organism-based
[18] = THP-1 cell cytotoxicity, cytotoxicity control, set 4 (AID 504911); format: functional; conditions: Mycobacterium tuberculosis
[19] = test system: H9c2; assay: cells; format: functional, cell-based; conditions: Rattus norvegicus, H9c2, Myocardium;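 note: confirmatory concentration-response retest of ultra-high-throughput screening hits for modulation of myocardial damage; cell death induced by hydrogen peroxide oxidative stress; compound pretreatment for 60 min then peroxide exposure for 2 h; potency is for protecting the cells against peroxide damage rather than for killing them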

Aurora kinase B, sequence (Q96GD4 whole entry): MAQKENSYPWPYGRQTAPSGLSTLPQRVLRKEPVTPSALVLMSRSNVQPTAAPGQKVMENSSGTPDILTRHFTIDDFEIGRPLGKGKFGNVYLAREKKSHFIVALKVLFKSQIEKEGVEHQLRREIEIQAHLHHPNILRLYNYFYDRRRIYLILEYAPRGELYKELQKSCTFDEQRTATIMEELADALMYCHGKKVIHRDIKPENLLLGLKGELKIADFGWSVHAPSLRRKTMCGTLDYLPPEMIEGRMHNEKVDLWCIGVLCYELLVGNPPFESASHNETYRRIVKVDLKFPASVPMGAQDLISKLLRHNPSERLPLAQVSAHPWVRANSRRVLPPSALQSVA

In the case of `NC(=NO)c1cccc(S(=O)(=O)Nc2ccc3c(c2)C(=NO)c2ccccc2-3)c1`, the Ki [1] is reported as 0.02 µM (active), the Ki [2] is reported as > 5.01 µM (inactive) and the Ki [3] is reported as 1 µM (active).

With `O=C(Nc1ccc(-n2cnc3ccccc32)cc1)Nc1cccc(C(F)(F)F)c1` the Ki [1] was 0.00251 µM (active), the Ki [2] was 0.00316 µM (active) and the Ki [3] was 0.501 µM (active).

For `O=C(/C=C/c1ccc([N+](=O)[O-])o1)NNC(=O)c1ccc(F)cc1`, the IC50 [4] was 1.8 µM (active), the CC50 [5] was 14.5 µM (active) and the EC50 [6] was 7.26 µM (active). For the same compound, the EC50 [7] was > 300 µM (not active), the EC50 [8] was 7.04 µM (inconclusive) and the EC50 [9] was 4.1 µM (inconclusive). The EC50 [10] was 2.93 µM (active), the EC50 [11] was 13.9 µM (active) and the EC50 [12] was 24.8 µM (active). For the same compound, the EC50 [13] was > 150 µM (inconclusive), the EC50 [14] was 10.3 µM (active) and the EC50 [15] was 4.1 µM (inconclusive). The EC50 [16] was 1.24 µM (active) and the EC50 [17] was 2.58 µM (active).

With `O=C(CSc1nc(O)c2ccccc2n1)N1CCOCC1` the CC50 [18] was > 100 µM (active) and the IC50 [19] was 25.9 µM (active).
